Columns and labels:
[1] = test system: anti-M monoclonal antibody BM40; format: binding
[2] = test system: anti-A and anti-M rabbit hyperimmunised and absorbed monospecific sera; format: binding

| Compound | inhibition of BM40 mAb binding by competing liquid phase antigen [1] | inhibition of anti-M vs anti-A monospecific sera binding [2] |
| --- | --- | --- |
| C[C@H]1O[C@H](O[C@@H]2[C@@H](O[C@@H]3[C@H](O)[C@@H](O[C@H]4[C@@H](O)[C@H](NC=O)[C@@H](C)O[C@@H]4O)O[C@H](C)[C@H]3NC=O)O[C@H](C)[C@@H](NC=O)[C@@H]2O)[C@@H](O)[C@@H](O)[C@@H]1NC=O [TSM antigen, 4,6-dideoxy-4-formamido-α-D-mannopyranosyl-(1-2)-4,6-dideoxy-4-formamido-α-D-mannopyranosyl-(1-3)-4,6-dideoxy-4-formamido-α-D-mannopyranosyl-(1-2)-4,6-dideoxy-4-formamido-α-D-mannopyranose] | inhibit the binding to a greater extent than the equivalent concentration of Y. enterocolitica O:9 OPS and to a similar degree as the B. abortus S99 OPS | preferential inhibition of the anti-M sera |
| CO[C@H]1OC(C)[C@@H](NC=O)C(O)C1O[C@H]1OC(C)[C@@H](NC=O)C(O[C@H]2OC(C)[C@@H](NC=O)C(O)C2O[C@H](C=O)OC(C)[C@H](C=O)NC=O)C1O (stereo partly drawn) [oxiTSM] | maintained its antibody interaction | – |
